Measurements from publication PMC4770092, “Subnanometre enzyme mechanics probed by single-molecule force spectroscopy” (Nature Communications, 2016).

How the values were obtained:
AdK 42-144 [1] = target: T1, AdK 42-144 (Aquifex aeolicus, UniProt O66490, INS42C/INS144C); assay: single-molecule optical tweezers, AP5A competition assay; assay type: binding; conditions: 50 mM Tris pH 7.5, 200 mM KCl, about 10 pN load
T1 construct: full length, Cys inserted between 42/43 and 144/145; N-terminal spacer MAAKGELSG, C-terminal spacer and His6 kept; synthetic gene in pET11a, E. coli BL21(DE3); DNA handles on Cys in trap assay
T1 sequence (O66490 other isoform, or with tags, fused parts or gaps INS42C/INS144C): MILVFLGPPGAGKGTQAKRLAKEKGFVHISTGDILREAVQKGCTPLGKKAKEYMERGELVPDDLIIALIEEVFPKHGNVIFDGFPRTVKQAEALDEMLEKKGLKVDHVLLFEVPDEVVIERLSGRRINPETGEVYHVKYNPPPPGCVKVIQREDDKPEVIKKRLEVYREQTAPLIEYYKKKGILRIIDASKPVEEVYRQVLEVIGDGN

AdK 42-144 [2] = target: T1, AdK 42-144; assay: single-molecule optical tweezers, lid closing/opening; assay type: binding; conditions: 50 mM Tris pH 7.5, 200 mM KCl; bisubstrate inhibitor

## Nc1ncnc2c1ncn2[C@@H]1O[C@H](COP(=O)(O)OP(=O)(O)O)[C@@H](O)[C@H]1O [ADP]
AdK 42-144 [1]; Mg-ADP, AP5A competitor
  KD: nucleotides ADP (yellow), Mg-ADP (green) and Mg-ATP (blue)

## Nc1ncnc2c1ncn2[C@@H]1O[C@H](COP(=O)(O)OP(=O)(O)OP(=O)(O)O)[C@@H](O)[C@H]1O [ATP]
AdK 42-144 [1]; Mg-ATP, 1 μM AP5A competitor
  KD: nucleotides ADP (yellow), Mg-ADP (green) and Mg-ATP (blue)

## Nc1ncnc2c1ncn2[C@@H]1O[C@H](COP(=O)(O)OP(=O)(O)OP(=O)(O)OP(=O)(O)OC[C@H]2O[C@@H](n3cnc4c(N)ncnc43)[C@H](O)[C@@H]2O)[C@@H](O)[C@H]1O [AP4A]
AdK 42-144 [2]
  single-molecule optical tweezers, lid closing/opening: We found that AP4A induces full closing of AdK indistinguishable from AP5A

## Nc1ncnc2c1ncn2[C@@H]1O[C@H](COP(=O)(O)OP(=O)(O)OP(=O)(O)OP(=O)(O)OP(=O)(O)OP(=O)(O)OC[C@H]2O[C@@H](n3cnc4c(N)ncnc43)[C@H](O)[C@@H]2O)[C@@H](O)[C@H]1O [AP6A]
AdK 42-144 [2]
  single-molecule optical tweezers, lid closing/opening: AP6A binds with the same affinity as AP5A despite its significantly reduced closing distance
